The text below walks through data of US12065445B2, “CDK2 inhibitors and methods of using the same” (Cedilla Therapeutics, Inc., priority 2021, dated 2024).

Some results are limits rather than exact numbers.

The subject of one experiment is Kuramochi cells. Put plainly: BrdU Cell Proliferation Assay. Type of experiment: cell-based. The settings on record: read-out: BrdU - KURAMOCHI.1: IC50. A digest of the protocol: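 Signal is 450 nm absorbance from a peroxidase anti-BrdU ELISA after a 1-hour BrdU label, background-subtracted and normalized to DMSO-treated wells. Kuramochi cells (2,000 per well) had been exposed to compound for 4 days. Dosing used a 10-point dose response in 3-fold steps.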

Experiment [1] relates to Kuramochi cells labeled with mApple-H2B. The experiment in a line: IncuCyte Cell Proliferation Assay. Format: cell-based. A digest of the protocol:
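GI50 came from dose-response fits of cell-count fold change between 0 and 72 h, normalized to DMSO controls. Counts were fluorescent nuclei from live-cell images over a 10-point, ½ log series starting at 20 μM.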

Broadly, the IC50 is the concentration that gives 50% inhibition. With `C[C@@H](OCC1CCCCC1)[C@H](NC(=O)C1CN(C(=O)c2cncs2)CC12CN(C(=O)[C@H]1CC1(C)C)C2)C(=O)N1CCC[C@H](CO)C1` (stereo partly drawn) [I-193], the IC50 (in the experiment on Kuramochi cells; in experiment [1] (72 h)) was at most 0.5 µM in each case.
Regarding `CNC(=O)[C@H](CO)NC(=O)C1CN(C(=O)c2cnn(Cc3ccccc3)c2)CC12CN(C(=O)[C@H]1CC1(C)C)C2` (stereo partly drawn) [I-260], the IC50 was above 10 µM in the experiment on Kuramochi cells and above 20 µM in experiment [1] (72 h).
For `CNC(=O)[C@@H](NC(=O)[C@@H]1CN(C(=O)c2sc(C)nc2C)CC12CN(C(=O)[C@H]1CC1(C)C)C2)[C@@H](C)OCC1CCCCC1` [I-213A] the same measures were 0.5 to 5 µM and 0.5 to 5 µM.
Turning to `C[C@@H](OCC1CCC(F)(F)CC1)[C@H](NC(=O)[C@@H]1CN(C(=O)c2cncs2)CC12CN(C(=O)[C@H]1CC1(C)C)C2)C(=O)N1C2CCC1COC2` [I-468], the half-maximal inhibitory concentration (IC50) (with Kuramochi cells; in experiment [1] (72 h)) was at most 0.5 µM in each case.
Regarding `CNC(=O)[C@@H](NC(=O)[C@@H]1CN(C(=O)c2cncs2)CC12CN(C(=O)[C@H]1CC1(C)C)C2)[C@@H](C)OCC12CCC(CC1)CC2` [I-289], the IC50 (in the experiment with Kuramochi cells; in experiment [1] (72 h)) was at most 0.5 µM each time.
Consider `C[C@@H](OCC1CCC(F)(F)CC1)[C@H](NC(=O)[C@@H]1CN(C(=O)c2cn[nH]c2)CC12CN(C(=O)C1(C(F)(F)F)CC1)C2)C(=O)N1CCOCC1` [I-302], for which the values for the IC50 (in the experiment on Kuramochi cells; in experiment [1] (72 h)) were above 10 µM and above 20 µM, respectively.
Consider `C[C@@H](OCC1CCCCC1)[C@@H](COCC1CCCCC1)NC(=O)[C@@H]1CN(C(=O)c2cncs2)CC12CN(C(=O)[C@H]1CC1(C)C)C2` [I-282], for which the 50% inhibitory concentration (IC50) (in the experiment with Kuramochi cells; in experiment [1] (72 h)) was at most 0.5 µM each time.
In the case of `C[C@@H](OCC1CCCCC1)[C@H](NC(=O)[C@H]1CN(C(=O)c2cnn(Cc3ccccc3)c2)CC12CN(C(=O)[C@H]1CC1(C)C)C2)C(=O)N1CCCCC1` [I-194B], the IC50 lay in the range of 0.5 to 5 µM with Kuramochi cells and 5 to 20 µM in experiment [1] (72 h).
Consider `C[C@@H](OCC12CCC(CC1)CC2)[C@H](NC(=O)[C@@H]1CN(C(=O)c2cncs2)CC12CN(C(=O)[C@H]1CC1(C)C)C2)C(C)(C)O` [I-304], for which the IC50 (with Kuramochi cells; in experiment [1] (72 h)) was 0.5 to 5 µM in each case.
On to `CNC(=O)C(NC(=O)[C@@H]1CN(C(=O)c2cncs2)CC12CN(C(=O)[C@H]1CC1(C)C)C2)c1cccc(N2CCOCC2)n1` (stereo partly drawn) [I-422], for which the half-inhibitory concentration (IC50) in the experiment with Kuramochi cells was above 10 µM; in experiment [1] (72 h), above 20 µM.
For `C[C@H](OC1CCN(C(=O)[C@@H]2CN(C(=O)c3cnn(Cc4ccccc4)c3)CC23CN(C(=O)[C@H]2CC2(C)C)C3)CC1)c1ccccc1` [I-275] the same measures were above 10 µM and above 20 µM.
For `CNC(=O)[C@@H](NC(=O)[C@H]1CN(C(=O)c2cnn(Cc3ccccc3)c2)CC12CN(C(=O)[C@H]1CC1(C)C)C2)[C@@H](C)OCC1CCC(C(F)(F)F)CC1` (stereo partly drawn) [I-141B] the same measures were 0.5 to 5 µM and 5 to 20 µM.
Turning to `CNC(=O)C(NC(=O)[C@@H]1CN(C(=O)c2cncs2)CC12CN(C(=O)[C@H]1CC1(C)C)C2)c1ncc(C2CCCCC2)o1` (stereo partly drawn) [I-426], the values for the 50% inhibitory concentration (IC50) (with Kuramochi cells; in experiment [1] (72 h)) were above 10 µM and above 20 µM, respectively.
On to `CC(O[C@H](C)[C@H](NC(=O)[C@@H]1CN(C(=O)c2cncs2)CC12CN(C(=O)[C@H]1CC1(C)C)C2)C(=O)N1CCC(F)(F)CC1)C1CCC(F)(F)CC1` (stereo partly drawn) [I-361], for which the IC50 (in the experiment with Kuramochi cells; in experiment [1] (72 h)) was 0.5 to 5 µM each time.
`CNC(=O)[C@@H](NC(=O)[C@H]1CN(C(=O)c2cnn(Cc3ccccc3)c2)CC12CN(C(=O)[C@H]1CC1(C)C)C2)[C@@H](C)OCCC1CCCCC1` [I-125B]: the IC50 (with Kuramochi cells; in experiment [1] (72 h)) was 0.5 to 5 µM in each case.
`C[C@@H](OCC1CCOCC1)[C@H](NC(=O)[C@@H]1CN(C(=O)c2cncs2)CC12CN(C(=O)C(C)(C)C1CC1)C2)C(C)(C)O` [I-341]: the IC50 in the experiment with Kuramochi cells is above 10 µM; in experiment [1] (72 h), above 20 µM.
For `C[C@@H](OCC1CCCCC1)[C@@H](CO)NC(=O)[C@H]1CN(C(=O)c2cnn(Cc3ccccc3)c2)CC12CN(C(=O)[C@H]1CC1(C)C)C2` [I-135B] the same measures were above 10 µM and 5 to 20 µM.
For `C[C@@H](OCC1CCCCC1)[C@H](NC(=O)[C@@H]1CN(C(=O)c2cn[nH]c2)CC12CN(C(=O)[C@H]1CC1(C)C)C2)C(=O)N1CCC(F)(F)CC1` [I-154A] the same measures were 0.5 to 5 µM and 0.5 to 5 µM.
The matching figures for `CNC(=O)[C@@H](NC(=O)[C@@H]1CN(C(=O)Cc2cnn(Cc3ccccc3)c2)CC12CN(C(=O)[C@H]1CC1(C)C)C2)[C@@H](C)OCc1ccccc1` [I-373]: above 10 µM and above 20 µM.
On to `Cc1ccc2[nH]c(CNC(=O)C3CN(C(=O)c4cnn(Cc5ccccc5)c4)CC34CN(C(=O)[C@H]3CC3(C)C)C4)nc2c1` (stereo partly drawn) [I-278], for which the IC50 in the experiment on Kuramochi cells is above 10 µM; in experiment [1] (72 h) it was above 20 µM.
Turning to `COC[C@H]1CCCN(C(=O)[C@@H](NC(=O)[C@@H]2CN(C(=O)c3cncs3)CC23CN(C(=O)[C@H]2CC2(C)C)C3)[C@@H](C)O[C@H](C)C2CCCCC2)C1` [I-466], the IC50 (in the experiment on Kuramochi cells; in experiment [1] (72 hours)) was 0.5 to 5 µM in each case.
With `C[C@@H](OCC1CCCCC1)[C@@H](COC1CCC(F)(F)CC1)NC(=O)[C@@H]1CN(C(=O)c2cnn(Cc3ccccc3)c2)CC12CN(C(=O)[C@H]1CC1(C)C)C2` [I-271], the IC50 (in the experiment on Kuramochi cells; in experiment [1] (72 h)) was at most 0.5 µM in each case.
For `CNC(=O)[C@@H](NC(=O)[C@@H]1CN(C(=O)c2cnn(Cc3ccccc3)c2)CC12CN(C(=O)[C@H]1CC1(C)C)C2)[C@@H](C)N(CC1CCCCC1)C(C)=O` [I-273, (S)-6-(1-benzyl-1H-pyrazole-4-carbonyl)-N-((2S,3R)-3-(N-(cyclohexylmethyl)acetamido)-1-(methylamino)-1-oxobutan-2-yl)-2-((S)-2,2-dimethylcyclopropane-1-carbonyl)-2,6-diazaspiro[3.4]octane-8-carboxamide], the IC50 in the experiment on Kuramochi cells was above 10 µM; in experiment [1] (72 h) it was above 20 µM.
The matching figures for `Cc1ccc(CNC(=O)[C@@H]2CN(C(=O)c3cnn(Cc4ccccc4)c3)CC23CN(C(=O)[C@H]2CC2(C)C)C3)cn1` [I-364]: above 10 µM and 5 to 20 µM.
For `CNC(=O)[C@@H](NC(=O)[C@@H]1CN(C(=O)c2cncs2)CC12CN(CC1CCCC1)C2)[C@@H](C)OCC12CCC(CC1)OC2` [I-344, (S)—N-((2S,3R)-3-(2-oxabicyclo[2.2.2]octan-4-ylmethoxy)-1-(methylamino)-1-oxobutan-2-yl)-2-(cyclopentylmethyl)-6-(thiazole-5-carbonyl)-2,6-diazaspiro[3.4]octane-8-carboxamide] the same measures were above 10 µM and above 20 µM.
The matching figures for `CNC(=O)[C@@H](NC(=O)[C@@H]1CN(C(=O)c2cncs2)CC12CN(C(=O)[C@H]1CC1(C)C)C2)[C@@H](C)OCC1CC2CCC1C2` (stereo partly drawn) [I-465]: 0.5 to 5 µM and at most 0.5 µM.
As for `CNC(=O)[C@@H](NC(=O)[C@@H]1CN(C(=O)c2cncs2)CC12CN(C(=O)[C@H]1CC1(C)C)C2)[C@@H](C)OC1CC2CCC1CC2` (stereo partly drawn) [I-464], the IC50 (with Kuramochi cells; in experiment [1] (72 h)) was 0.5 to 5 µM each time.
For `C[C@@H](OCC1CCC(F)(F)CC1)[C@H](NC(=O)[C@@H]1CN(C(=O)c2cncs2)CC12CN(C(=O)[C@H]1CC1(C)C)C2)C(=O)N1CCC(O)CC1` [I-383], the concentration for half-maximal inhibition (IC50) with Kuramochi cells lay in the range of 5 to 10 µM; in experiment [1] (72 h), 0.5 to 5 µM.
For `C[C@@H](OC1(C2CCCCC2)CC1)[C@H](NC(=O)[C@@H]1CN(C(=O)c2cncs2)CC12CN(C(=O)[C@H]1CC1(C)C)C2)C(=O)N1CCCCC1` [I-357], the IC50 is 5 to 10 µM with Kuramochi cells and 5 to 20 µM in experiment [1] (72 h).
The matching figures for `CC(=O)N1C[C@@H](C(=O)N[C@H](C(=O)N2CCCCC2)[C@@H](C)OCC2CCCCC2)C2(C1)CN(C(=O)[C@H]1CC1(C)C)C2` [I-118]: above 10 µM and above 20 µM.
In the case of `C[C@@H](OCC1CCC(F)(F)CC1)[C@H](NC(=O)[C@@H]1CN(C(=O)c2cnn(Cc3ccc(F)cc3)c2)CC12CN(C(=O)[C@H]1CC1(C)C)C2)C(=O)N1CCC(F)(F)CC1` [I-164A], the IC50 (in the experiment with Kuramochi cells; in experiment [1] (72 h)) was at most 0.5 µM each time.
As for `CNC(=O)[C@@H](NC(=O)[C@@H]1CN(C(=O)c2cncs2)CC12CN(C(=O)[C@H]1CC1(C)C)C2)C1(OCc2ccccc2)CC1` [I-375], the values for the IC50 (with Kuramochi cells; in experiment [1] (72 h)) were above 10 µM and above 20 µM, respectively.
For `CNC(=O)[C@@H](NC(=O)[C@@H]1CN(C(=O)c2cnn(Cc3ccccc3)c2)CC12CN(C(=O)N(C)C1CC1)C2)[C@@H](C)OCC1CCCCC1` [I-295] the same measures were 5 to 10 µM and 5 to 20 µM.
The matching figures for `CNC(=O)[C@@H](NC(=O)[C@@H]1CN(C(=O)c2cncs2)CC12CN(C(=O)[C@H]1CC1(C)C)C2)[C@H](O)CC1CCCCC1` [I-379]: above 10 µM and above 20 µM.
On to `C[C@@H](OCC1CCOCC1)[C@H](NC(=O)[C@@H]1CN(C(=O)c2cncs2)CC12CN(C(=O)[C@H]1CC1(C)C)C2)C(=O)N1CCC(F)(F)CC1` [I-288], for which the values for the half-maximal inhibitory concentration (IC50) (in the experiment on Kuramochi cells; in experiment [1] (72 h)) were above 10 µM and 5 to 20 µM, respectively.
For `CNC(=O)[C@@H](NC(=O)[C@@H]1CN(C(=O)c2cnn(Cc3ccccc3)c2)CC12CN(C(=O)[C@H]1CC1(C)C)C2)[C@@H](C)OCCC1CCCCC1` [I-125A], the IC50 (in the experiment with Kuramochi cells; in experiment [1] (72 h)) was at most 0.5 µM throughout.
For `CNC(=O)[C@@H](NC(=O)[C@@H]1CN(C(=O)c2cncs2)CC12CN(CC1CCOC1)C2)[C@@H](C)OCC12CCC(CC1)OC2` (stereo partly drawn) [I-345], the half-maximal inhibitory concentration (IC50) is above 10 µM with Kuramochi cells and above 20 µM in experiment [1] (72 h).
With `CNC(=O)C(NC(=O)[C@@H]1CN(C(=O)c2cncs2)CC12CN(C(=O)[C@H]1CC1(C)C)C2)c1cccc(N2CC3(CC(C(F)(F)F)C3)C2)n1` (stereo partly drawn) [I-430], the IC50 in the experiment with Kuramochi cells is above 10 µM; in experiment [1] (72 h), above 20 µM.
For `CO[C@H]1COCC[C@@H]1NC(=O)[C@@H]1CN(C(=O)c2cnn(Cc3ccccc3)c2)CC12CN(C(=O)[C@H]1CC1(C)C)C2` [I-131A], the IC50 in the experiment on Kuramochi cells was above 10 µM; in experiment [1] (72 h) it was above 20 µM.
